Laboratory results published in ChEMBL document CHEMBL1147026, “Synthesis of pseudopeptides based L-tryptophan as a potential antimicrobial agent” (Bioorg Med Chem Lett, 2007).
In brackets after ≈: the same amount, converted by molar mass.

How the values were obtained:
[1] = system: Aspergillus sp.; experiment: Antifungal activity against Aspergillus sp. after 48 to 72 hrs by broth microdilution method; assay type: functional
[2] = system: Candida albicans; experiment: Antifungal activity against Candida albicans CMAH 0507 after 48 to 72 hrs by broth microdilution method; assay type: functional
[3] = system: Saccharomyces cerevisiae; experiment: Antimicrobial activity against Saccharomyces cerevisiae after 48 to 72 hrs by broth microdilution method; assay type: functional
[4] = Toxicity in human erythrocytes assessed as haemolysis upto 500 ug/mL; assay type: cell-based, Erythrocyte; conditions: read-out: Activity
[5] = system: Candida albicans; experiment: Antifungal activity against Candida albicans CMAH 0572 after 48 to 72 hrs by broth microdilution method; assay type: functional
[6] = Toxicity in human erythrocytes assessed as haemolysis upto 4000 ug/mL; assay type: cell-based, Erythrocyte; conditions: read-out: Activity
[7] = system: Candida albicans; experiment: Antifungal activity against Candida albicans CMAM 0577 after 48 to 72 hrs by broth microdilution method; assay type: functional
[8] = system: Staphylococcus aureus; experiment: Antibacterial activity against methicillin-resistant Staphylococcus aureus CMAH 0430 after 24 hrs by two fold dilution method; assay type: functional
[9] = system: Staphylococcus aureus; experiment: Antibacterial activity against methicillin-resistant Staphylococcus aureus CMAH 0504 after 24 hrs by two fold dilution method; assay type: functional
[10] = system: Klebsiella aerogenes; experiment: Antibacterial activity against Enterobacter aerogenes CMCC(B) 45103 after 24 hrs by two fold dilution method; assay type: functional
[11] = system: Candida albicans; experiment: Antifungal activity against Candida albicans CMAM 0592 after 48 to 72 hrs by broth microdilution method; assay type: functional
[12] = system: Candida albicans; experiment: Antifungal activity against Candida albicans CMAM 0594 after 48 to 72 hrs by broth microdilution method; assay type: functional
[13] = system: Micrococcus luteus; experiment: Antimicrobial activity against Micrococcus luteus CMCC(B) 28001 after 24 hrs by two fold dilution method; assay type: functional
[14] = system: Candida albicans; experiment: Antifungal activity against Candida albicans CMAH 0503 after 48 to 72 hrs by broth microdilution method; assay type: functional
[15] = system: Proteus vulgaris; experiment: Antimicrobial activity against Proteus vulgaris CMCC(B) 49001 after 24 hrs by two fold dilution method; assay type: functional
[16] = system: Candida albicans; experiment: Antifungal activity against Candida albicans CMAH 0527 after 48 to 72 hrs by broth microdilution method; assay type: functional
[17] = system: Pseudomonas aeruginosa; experiment: Antimicrobial activity against Pseudomonas aeruginosa ATCC 27853 after 24 hrs by two fold dilution method; assay type: functional; conditions: ATCC 27853, 24 h
[18] = Toxicity in human erythrocytes assessed as haemolysis upto 30 ug/mL; assay type: cell-based, Erythrocyte; conditions: read-out: Activity
[19] = system: Bacillus subtilis; experiment: Antimicrobial activity against Bacillus subtilis after 24 hrs by two fold dilution method; assay type: functional
[20] = system: Cryptococcus neoformans; experiment: Antifungal activity against Cryptococcus neoformans ATCC 90112 after 48 to 72 hrs by broth microdilution method; assay type: functional
[21] = system: Candida albicans; experiment: Antifungal activity against fluconazole-resistant Candida albicans CMAM 0597 after 48 to 72 hrs by broth microdilution method; assay type: functional
[22] = system: Staphylococcus aureus; experiment: Antibacterial activity against methicillin-susceptible Staphylococcus aureus ATCC 25923 after 24 hrs by two fold dilution method; assay type: functional; conditions: ATCC 25923, 24 h
[23] = system: Rhodotorula glutinis; experiment: Antimicrobial activity against Rhodotorula glutinis SYM 2209 after 48 to 72 hrs by broth microdilution method; assay type: functional
[24] = system: Escherichia coli; experiment: Antimicrobial activity against Escherichia coli ATCC 25922 after 24 hrs by two fold dilution method; assay type: functional; conditions: ATCC 25922, 24 h
[25] = system: Candida albicans; experiment: Antifungal activity against Candida albicans CMAH 0511 after 48 to 72 hrs by broth microdilution method; assay type: functional
[26] = system: Candida albicans; experiment: Antifungal activity against fluconazole-resistant Candida albicans CMAH 0520 after 48 to 72 hrs by broth microdilution method; assay type: functional
[27] = system: Candida albicans; experiment: Antifungal activity against Candida albicans CMAH 0501 after 48 to 72 hrs by broth microdilution method; assay type: functional
[28] = system: Staphylococcus aureus; experiment: Antibacterial activity against methicillin-resistant Staphylococcus aureus CMAH 0515 after 24 hrs by two fold dilution method; assay type: functional
[29] = system: Candida albicans; experiment: Antifungal activity against Candida albicans ATCC 10231 after 48 to 72 hrs by broth microdilution method; assay type: functional

For COC(=O)[C@H](Cc1c[nH]c2ccccc12)NC(=O)c1ccccn1, the MFC50 [1] was 64 µg/mL (≈ 198 µM), the MFC90 [1] was over 128 µg/mL and the MIC ([1]; Aspergillus sp.) was 33.6 µg/mL (≈ 104 µM). For the same compound, the MIC50 ([1]; Aspergillus sp.) was 8 µg/mL (≈ 24.7 µM), the MIC90 ([1]; Aspergillus sp.) was 64 µg/mL (≈ 198 µM) and the MFC [2] was 16 µg/mL (≈ 49.5 µM). The MIC [2] was 8 µg/mL (≈ 24.7 µM), the MFC [3] was 8 µg/mL (≈ 24.7 µM) and the MIC [3] was 4 µg/mL (≈ 12.4 µM). The hemolysis [4] was 2.52%, the MFC [5] was 64 µg/mL (≈ 198 µM) and the MIC [5] was 32 µg/mL (≈ 99 µM). It also gave a hemolysis [6] of 6%, an MFC [7] of 64 µg/mL (≈ 198 µM) and an MIC [7] of 32 µg/mL (≈ 99 µM). The MBC [8] was 4 µg/mL (≈ 12.4 µM), the MIC [8] was 1 µg/mL (≈ 3.09 µM) and the MBC [9] was 8 µg/mL (≈ 24.7 µM). It also gave an MIC [9] of 2 µg/mL (≈ 6.19 µM), an MIC [10] of 64 µg/mL (≈ 198 µM) and an MFC [11] of 16 µg/mL (≈ 49.5 µM). The MIC [11] was 4 µg/mL (≈ 12.4 µM), the MFC [12] was 32 µg/mL (≈ 99 µM) and the MIC [12] was 8 µg/mL (≈ 24.7 µM). It also gave an MBC [13] of 8 µg/mL (≈ 24.7 µM), an MIC [13] of 4 µg/mL (≈ 12.4 µM) and an MFC [14] of 32 µg/mL (≈ 99 µM). It also gave an MIC [14] of 8 µg/mL (≈ 24.7 µM), an MBC [15] of over 128 µg/mL and an MIC [15] of 32 µg/mL (≈ 99 µM). The MFC [16] was 32 µg/mL (≈ 99 µM), the MIC [16] was 16 µg/mL (≈ 49.5 µM) and the MBC [17] was over 128 µg/mL. It also gave an MIC [17] of 32 µg/mL (≈ 99 µM), a hemolysis [18] of 50% and an MBC [19] of 16 µg/mL (≈ 49.5 µM). For the same compound, the MIC [19] was 4 µg/mL (≈ 12.4 µM), the MFC [20] was 2 µg/mL (≈ 6.19 µM) and the MIC [20] was 1 µg/mL (≈ 3.09 µM). For the same compound, the MFC [21] was 32 µg/mL (≈ 99 µM), the MIC [21] was 8 µg/mL (≈ 24.7 µM) and the MBC [22] was 8 µg/mL (≈ 24.7 µM). For the same compound, the MIC [22] was 1 µg/mL (≈ 3.09 µM), the MFC [23] was 2 µg/mL (≈ 6.19 µM) and the MIC [23] was 1 µg/mL (≈ 3.09 µM). For the same compound, the MIC [24] was 64 µg/mL (≈ 198 µM), the MFC [25] was 4 µg/mL (≈ 12.4 µM) and the MIC [25] was 2 µg/mL (≈ 6.19 µM). For the same compound, the MFC [26] was 32 µg/mL (≈ 99 µM), the MIC [26] was 8 µg/mL (≈ 24.7 µM) and the MFC [27] was 4 µg/mL (≈ 12.4 µM). The MIC [27] was 16 µg/mL (≈ 49.5 µM), the MBC [28] was 4 µg/mL (≈ 12.4 µM) and the MIC [28] was 1 µg/mL (≈ 3.09 µM). For the same compound, the MFC [29] was 4 µg/mL (≈ 12.4 µM) and the MIC [29] was 8 µg/mL (≈ 24.7 µM).
With C[C@@H]1[C@H](O)[C@@H](C)/C=C/C=C/C=C/C=C/C=C/C=C/C=C/[C@H](O[C@@H]2O[C@H](C)[C@@H](O)[C@H](N)[C@@H]2O)C[C@@H]2O[C@](O)(C[C@@H](O)C[C@@H](O)[C@H](O)CC[C@@H](O)C[C@@H](O)CC(=O)O[C@H]1C)C[C@H](O)[C@H]2C(=O)O [AMPHOTERICIN B] the MFC50 [1] was 2 µg/mL (≈ 2.16 µM), the MFC90 [1] was 8 µg/mL (≈ 8.66 µM) and the MFC ([1]; Aspergillus sp.) was 2.96 µg/mL (≈ 3.2 µM). The MIC ([1]; Aspergillus sp.) was 1.61 µg/mL (≈ 1.74 µM), the MIC50 ([1]; Aspergillus sp.) was 1 µg/mL (≈ 1.08 µM) and the MIC90 ([1]; Aspergillus sp.) was 4 µg/mL (≈ 4.33 µM). For the same compound, the MFC [2] was 0.5 µg/mL (≈ 0.541 µM), the MIC [2] was 0.5 µg/mL (≈ 0.541 µM) and the MFC [3] was 0.5 µg/mL (≈ 0.541 µM). It also gave an MIC [3] of 0.25 µg/mL (≈ 0.271 µM), an MFC [5] of 4 µg/mL (≈ 4.33 µM) and an MIC [5] of 1 µg/mL (≈ 1.08 µM). The MFC [7] was 4 µg/mL (≈ 4.33 µM), the MIC [7] was 1 µg/mL (≈ 1.08 µM) and the MFC [11] was 2 µg/mL (≈ 2.16 µM). The MIC [11] was 2 µg/mL (≈ 2.16 µM), the MFC [12] was 4 µg/mL (≈ 4.33 µM) and the MIC [12] was 4 µg/mL (≈ 4.33 µM). It also gave an MFC [14] of 0.5 µg/mL (≈ 0.541 µM), an MIC [14] of 0.25 µg/mL (≈ 0.271 µM) and an MFC [16] of 1 µg/mL (≈ 1.08 µM). It also gave an MIC [16] of 0.5 µg/mL (≈ 0.541 µM), an MFC [20] of 1 µg/mL (≈ 1.08 µM) and an MIC [20] of 0.25 µg/mL (≈ 0.271 µM). For the same compound, the MFC [21] was 4 µg/mL (≈ 4.33 µM), the MIC [21] was 2 µg/mL (≈ 2.16 µM) and the MFC [23] was over 64 µg/mL. It also gave an MIC [23] of 16 µg/mL (≈ 17.3 µM), an MFC [25] of 2 µg/mL (≈ 2.16 µM) and an MIC [25] of 1 µg/mL (≈ 1.08 µM). The MFC [26] was 0.5 µg/mL (≈ 0.541 µM), the MIC [26] was 0.25 µg/mL (≈ 0.271 µM) and the MFC [27] was 1 µg/mL (≈ 1.08 µM). The MIC [27] was 0.25 µg/mL (≈ 0.271 µM), the MFC [29] was 0.25 µg/mL (≈ 0.271 µM) and the MIC [29] was 0.13 µg/mL (≈ 0.141 µM).
